Measurements as given in US5594012A, “Amino acid derivatives and anti-active oxygen agents” (Ajinomoto Co., Inc., priority 1992, dated 1997).
Counter-ions that a name gives are not always drawn.

How the values were obtained:
[1] = tested on: lipid peroxidation in murine brain homogenate; assay: Inhibitory effects on lipid peroxidation (murine brain homogenate); format: biochemical, murine (C57 black mouse); settings: 30 μM test compound; no added iron; 37° C., 60 minutes; pH 7.2 to 7.8
Method: (§1) The test was carried out according to the method described in Method in Enzymol., Vol. 52, page 302, 1978. A C57 black mouse was killed by cervical dislocation, and the whole brain extracted from the dissected head was washed with 20 mM phosphate buffer (hereinafter referred to as "PBS-2"). Then, the brain was added with PBS-2 in an amount of 19 times its wet weight, and the mixture was disrupted and homogenized with a homogenizer "Polytron" (manufactured by Kinematica). The thus prepared 5% solution of the murine brain homogenate in PBS-2 was diluted 1:5 with fresh PBS-2. To 800 μl of the resulting 1% solution of the murine brain homogenate in PBS-2 (protein content: 0.8 to 1.0 mg/ml) were successively added 100 μl of a PBS-2 solution of each of the test compounds shown in Table 7 below and 100 μl of an aqueous solution of ammonium iron (II) sulphate. The final concentration of the test compounds and ammonium iron (II) sulphate were adjusted to be 1 mM and 100 μM, respectively. If test compounds were not soluble in PBS-2 alone, an aqueous sodium hydroxide solution or DMSO was added. The pH of the solution was adjusted to 7.2 to 7.8.
Test for Inhibitory Effects on Lipid Peroxidation
To 900 μl of a 5% solution of the murine brain homogenate in PBS-2 prepared in the same way as described in Test Example 3 was added 100 μl of a PBS-2 solution of each of the test compounds shown in Table 8 below. The final concentration of the test compounds was adjusted to be 30 μM. If test compounds were not soluble in PBS-2 alone, an aqueous solution of sodium hydroxide or DMSO was added. The pH of the solution was adjusted to 7.2 to 7.8.
The solution after heated at 37° C. for 60 minutes was added with 1.0 ml of an aqeuous solution of thiobarbituric acid/trichloroacetic acid/hydrochloric acid, and the mixture was heated in a boiling water bath for 15 minutes. After ice-cooling, the solution was extracted with 2.0 ml of 1-butanol to prepare a sample for determining the lipid peroxide in the same way as described in Test Example 1. […] [formula] A4 : Absorbance when a test compound was added. A5 : Absorbance when a test compound was not added.
A6 : Abosrbance when a test compound was not added and heating at 37° C. for […] was not carried out.

[2] = tested on: hydroxyl radical; assay: Inhibitory effects on hydroxyl radical formation (1) (xanthine/xanthine oxidase, deoxyribose); format: biochemical; settings: 360 μM test compound; 36 μM ammonium iron (III) sulphate; xanthine oxidase 0.7 unit/ml; 37° C., 15 minutes; pH 7.4 to 7.8
Method: Test for Inhibitory Effects on Hydroxyl Radical Formation (1)
The test was carried out in accordance with the method described in FEBS Letters, Vol. 128, page 347, 1981. Namely, to 1.1 ml of a solution of 54 mM sodium chloride in 9 mM phosphate buffer (hereinafter referred to as "PBS-I") were successively added 140 μl of a solution of each of the test compounds shown in Table 6 below in PBS-1, […] of a 1 mM solution of ammonium iron (III) sulphate in hydrochloric acid, 140 μl of a solution of xanthine (manufactured by Tokyo Kasei Co.) in PBS-1, 14 μl a solution of deoxyribose (Sigma) in PBS-1 and xanthine oxidase (Sigma). The final concentrations of the test compounds, ammonium iron (III) sulphate, xanthine, deoxyribose and xanthine oxidase were adjusted to be 360 μM, 36 μM, 70 μM, 700 μM and 0.7 unit/ml, respectively. If test compounds were not soluble in PBS-1 alone, aqueous sodium hydroxide solution or DMSO was added. The pH of the solution was adjusted to 7.4 to 7.8.
. The percent inhibition of the hydroxyl radical was calculated from the following equation (2) and the results are shown in Table 6. [formula] F1 : Intensity of fluorescence when a test compound was added. F2 : Intensity of fluorescence when a test compound was added but deoxyribose was not added.
F3 : Intensity of fluorescence when a test compound was not added.
F4 : Intensity of fluorescence when neither test compound nor deoxyribose was added.

[3] = tested on: lipid peroxidation in homogenate of murine swiss 3T3 cells; assay: Inhibitory effects on UV-induced lipid peroxidation (homogenate of murine swiss 3T3 cells); format: biochemical; settings: 1 mM test compound; UVB 0.4 mW/cm^2, 90 min; pH 7.2 to 7.8; TBA, 535 nm
Method: Test for Inhibitory Effects on UV-induced Lipid Peroxidation
The test was carried out on the basis of the methods described in Biochim. Biophys. […] Namely, 12 μl of an aqueous sodium hydroxide solution of each of the test compounds shown in Table 5 below was added to 1.2 ml of a homogenate of murine swiss 3T3 cells (i.e. a kind of murine skin cells) prepared by a conventional method in 20 mM phosphate buffer (protein content: 1.5 to 1.8 mg/ml). The final concentration of the test compounds was adjusted to be 1 mM and the pH of the solution was adjusted to 7.2 to 7.8. If test compounds were not soluble in an aqueous sodium hydroxide solution, they were dissolved in N,N-dimethyl sulfoxide (DMSO).
This solution (1.1 ml) was irradiated with UV rays (0.4 mW/cm^2, 90 min.) using a UVB lamp "EB-280C/J" (manufactured by Spectronics). To an aliquot (1.0 ml) of this solution were successively added 0.2 ml of an aqueous solution of sodium dodecyl sulfate and 1.0 ml of an aqueous solution of thiobarbituric acid/trichloroacetic acid/hydrochloric acid, and the mixed solution was heated in a boiling water bath for 15 minutes. After ice-cooling, the solution was extracted with 1.0 ml of 1-butanol to prepare a sample for determining peroxide lipid as absorbance at a wavelength of 535 nm using a spectrophotometer "Model 320" (manufactured by Hitachi).
(§2) [formula] A1 : Absorbance when a test compound was added. A2 : Absorbance when a test compound was not added.
A3 : Absorbance when a test compound was not added and UV rays were not irradiated.

[4] = tested on: lipid peroxidation in murine brain homogenate; assay: Inhibitory effects on metal ion-induced lipid peroxidation (murine brain homogenate); format: biochemical, murine (C57 black mouse); settings: 1 mM test compound; 100 μM ammonium iron (II) sulphate; 37° C., 30 minutes; pH 7.2 to 7.8
Method: Test for Inhibitory Effects on Metal Ion-induced Lipid Peroxidation
as §1
The solution after heated at 37° C. for 30 minutes was added with 2.0 ml of an aqueous solution of thiobarbituric acid/trichloroacetic acid/hydrochloric acid, and the mixture was heated in a boiling water bath for 15 minutes. After ice-cooling, the solution was extracted with 1.0 ml of 1-butanol to prepare a sample for determining the peroxide lipid in the same way as described in Test Example 1.
as §2
A3 : Absorbance when a test compound was not added and heating at 37° C. for 30 minutes was not carried out.

[5] = tested on: hydroxyl radical; assay: Inhibitory effects on hydroxyl radical formation (2) (iron (II)/hydrogen peroxide, DMPO, ESR); format: biochemical; settings: 306 μM test compound; 306 μM iron (II) sulphate; 75 mM DMPO; 306 μM hydrogen peroxide; ESR within 40 seconds
Method: Test for Inhibitory Effects on Hydroxyl Radical Formation (2)
To 75 μl of a solution of each of the test compounds shown in Table 9 below in 0.1M phosphate buffer (hereinafter referred to as "PBS-3") were successively added 75 μl of an aqueous solution of iron (II) sulphate, 20 μl of an aqueous solution of 5,5-dimethyl-1-pyrroline-N-oxide "DMPO" (manufactured by Dojin Chemical) and 75 μl of an aqueous solution of hydrogen peroxide. […] If test compounds were not soluble in PBS-3 alone, an aqueous sodium hydroxide solution or N,N-dimethyl formamide was added.
This solution was subjected to determination for the hydroxy radical immediately (within 40 seconds), using an electron spin resonance (ESR) meter "JES-FR80S" (manufactured by Nippon Denshi).
[formula] E1 : Signal magnitude when a test compound was added. E2 : Signal magnitude when a test compound was not added.

[6] = UV absorptive activities; format: physicochemical; settings: 100 μM in ethanol (water or DMSO added if not soluble); for Maximum molar extinction coefficient: UVA and UVB regions
Method: Test for UV Absorptive Activities
A solution of each of the test compounds shown in Table 10 below in ethanol was prepared for the final concentration to be 100 μM. If test compounds were not soluble in ethanol alone, water or DMSO was added.
The absorption spectrum of each sample was determined using a spectrophotometer "Model 320" (manufactured by Hitachi).

SMILES	% Inhibition of hydroxyl radical [2]	Wavelength (nm) of maximum absorption [6]	Maximum molar extinction coefficient [6]	% Inhibition of lipid peroxidation [1]	% Inhibition of UV-induced lipid peroxidation [3]	% Inhibition of metal ion-induced lipid peroxidation [4]	% Inhibition of hydroxy radicals [5]
O=C(O)CC(O)(CC(=O)O)C(=O)O [Citric acid, reference compound]	-33%	–	–	-13%	19%	-15%	–
O=C(O)[C@H](Cc1c[nH]cn1)NCc1ccccc1O [Synthesis Example 1, N-(2-hydroxybenzyl)-L-histidine]	29%	–	–	53%	40%	26%	27%
Cc1ncc(CO)c(CNCC(=O)O)c1O [Synthesis Example 16]	–	–	–	89%	–	–	56%
O=C(O)[C@H](Cc1c[nH]cn1)N=Cc1c(O)ccc2ccccc12 [Synthesis Example 27, N-(2-hydroxy-1-naphthal)-L-histidine]	–	309 nm	7,000	98%	–	87%	71%
O=C(O)C(CCO)N=Cc1c(O)ccc2ccccc12 (stereo not drawn) [Synthesis Example 29]	–	–	–	–	–	78%	60%
CC(C)C(N=Cc1c(O)ccc2ccccc12)C(=O)O (stereo not drawn) [Synthesis Example 30]	–	–	–	–	–	43%	25%
O=C(O)CCC(N=Cc1c(O)ccc2ccccc12)C(=O)O (stereo not drawn) [Synthesis Example 47]	–	–	–	–	–	90%	32%
COC(=O)CCC(N=Cc1c(O)ccc2ccccc12)C(=O)O (stereo not drawn) [Synthesis Example 48]	–	–	–	–	–	85%	54%
N=C(N)NCCCC(N=Cc1c(O)ccc2ccccc12)C(=O)O (stereo not drawn) [Synthesis Example 53]	–	–	–	–	–	96%	68%
O=C(O)C(Cc1c[nH]cn1)N=Cc1ccccc1O (stereo not drawn) [Synthesis Example 60]	–	–	–	–	–	34%	33%
Cc1ncc(CO)c(C=N[C@@H](Cc2c[nH]cn2)C(=O)O)c1O [Synthesis Example 68, N-pyridoxilidene-L-histidine-sodium salt]	15%	291 nm	4,300	–	–	15%	10%
Cc1ncc(CO)c(C=NC(CO)C(=O)O)c1O (stereo not drawn) [Synthesis Example 69]	–	336 nm	3,000	15%	–	23%	19%

Further lines, with some results ahead:

% Inhibition of hydroxyl radical [2]	Wavelength (nm) of maximum absorption [6]	Maximum molar extinction coefficient [6]	SMILES	% Inhibition of lipid peroxidation [1]	% Inhibition of UV-induced lipid peroxidation [3]	% Inhibition of metal ion-induced lipid peroxidation [4]	% Inhibition of hydroxy radicals [5]
29%	–	–	O=C(O)C(CO)NCc1ccccc1O (stereo not drawn) [Synthesis Example 2]	26%	59%	41%	44%
15%	–	–	O=C(O)C(CCO)NCc1ccccc1O (stereo not drawn) [Synthesis Example 3]	–	65%	21%	45%
33%	–	–	O=C(O)C(Cc1ccc(O)cc1)NCc1ccccc1O (stereo not drawn) [Synthesis Example 4]	–	60%	26%	27%
42%	290 nm	3,500	Cc1ncc(CO)c(CNC(CO)C(=O)O)c1O (stereo not drawn) [Synthesis Example 18]	44%	–	26%	43%
–	290 nm	5,300	Cc1ncc(CO)c(CNC(Cc2c[nH]cn2)C(=O)O)c1O (stereo not drawn) [Synthesis Example 22]	91%	–	–	51%
16%	–	–	O=C(O)C(Cc1ccc(O)cc1)N=Cc1c(O)ccc2ccccc12 (stereo not drawn) [Synthesis Example 31]	–	–	90%	–
60%	–	–	Cc1ncc(CO)c(C=NC(Cc2ccc(O)cc2)C(=O)O)c1O (stereo not drawn) [Synthesis Example 70]	–	–	27%	28%
